Reference: US20260324646A1, “BIOLOGICAL COMPOSITION FOR USE AGAINST PLANT FUNGICIDAL INFECTIONS” (UNIVERSITA' DEGLI STUDI DI MILANO, priority 2023, published 2026)

Key:
[1] = system: S. lycopersicum plants; assay: Phytotoxicity to treated plants in the in vivo experiments; set-up: species or system Solanum lycopersicum (cultivar Rio Grande); settings: BA 3X (4.8 mM), sprayed 24 hours after infection
Protocol: (§1) The fungal strains were maintained on potato dextrose agar (PDA, Merck kGaA, Darmstadt, Germany) at 4±1° C. and regularly subcultured. Plants of Solanum lycopersicum (cultivar Rio Grande) were sprouted in the greenhouse of the Fondazione dell'Università di Milano Filarete (Milan, Italy) under controlled conditions (T=18/25±1° C. (night/day), humidity ≥90%, photoperiod 16 h light:8 h dark). Determination of in vitro growth inhibition caused by mixtures of CA, BA, CaCl2 and the compositions of the invention was performed by measuring the diameter and calculating the radial growth rate (Kr, mm/h). The diameter growth of the fungi was determined daily, in six repetitions, using the Image J program (Copyright© 1993, 2018, Oracle).
S. lycopersicum plants were infected by […] the spores of the pathogenic fungus Alternaria sp. on the attached leaves and stem. Alternaria sp. spores were obtained by dropping 20 mL of sterile H2O into a culture of the fungus in a Petri dish. The inoculum was calculated after enumerating the spores under light microscope using a counting chamber device and the concentration was 3.1×10^6 spores/mL. 24 hours after infection, the attached leaves were sprayed with the compositions of the invention. The plants were infected and untreated, or treated with CA mixtures or with the compositions of the invention 24 hours after infection with Alternaria sp. […]

[2] = system: Alternaria sp. and B. caroliniana; assay: In vitro growth inhibition of phytopathogenic fungi on PDA (radial growth rate, 12-day effect); format: cell-based, Alternaria sp.; Botrytis caroliniana; settings: for radial growth rate (Kr): PDA, 27±1° C.
Protocol: The phytopathogenic fungus Alternaria sp. was isolated in December 2021 from a vineyard in Oltrepo pavese (Santa Maria della Versa, Pavia, Italy).
In addition to Alternaria sp., experiments were also carried out on the fungus Botrytis caroliniana.
as §1
The fungal cultures were carried out in Petri dishes (6 Well Cell Culture Plates, Sigma-Aldrich). The media treated with the compositions of the invention were inoculated with mycelial caps (diameter 7 mm) of growing active fungal strains (e.g., Alternaria sp. and B. caroliniana). The control cultures are carried out on PDA support and compared with those conducted on CA, BA, CaCl2 and on compositions according to the invention. The media was sterilized at 121° C. for 20 min. Incubation was carried out at 27±1° C. for 12 days in a static incubator (Memmert GmbH+Co. KG, Schwabach, Germany).
The results are shown in FIG. 1 (a) PDA control; b) PDA substrate containing citric acid).

## OB(O)O [BA, Boric acid]
[1]
  Effect (8 days after infection): toxicity for the plant: Toxic for the plant
[2]; BA 1X (1.6 mM)
  radial growth rate (Kr): 0.115 mm/h
[2]; BA 3X (4.8 mM)
  radial growth rate (Kr): 0.051 mm/h
[2]; BA 5X (8.0 mM)
  Effect (12 days from cultivation): −
  radial growth rate (Kr): 0.003 mm/h

## [Ca+2].[Cl-].[Cl-] [CaCl2, Calcium chloride]
[2]; CaCl2 1X (0.45 mM)
  Effect (12 days from cultivation): +++++
  radial growth rate (Kr): 0.214 mm/h
[2]; CaCl2 2X (0.90 mM)
  Effect (12 days from cultivation): +++++
  radial growth rate (Kr): 0.221 mm/h
[2]; CaCl2 3X (1.4 mM)
  radial growth rate (Kr): 0.077 mm/h

## O=C(O)CC(O)(CC(=O)O)C(=O)O [CA, Citric acid]
[2]; CA 1X (0.01M)
  radial growth rate (Kr): 0.099 mm/h
[2]; CA 2X (0.02M)
  radial growth rate (Kr): 0.028 mm/h
[2]; CA 3X (0.03M)
  radial growth rate (Kr): 0.034 mm/h
[2]; CA 5X (0.05M)
  radial growth rate (Kr): 0.012 mm/h
[2]; CA 7X (0.07M)
  radial growth rate (Kr): 0.020 mm/h
[2]; CA 10X (0.1M)
  Effect (12 days from cultivation): −
  radial growth rate (Kr): 0.000 mm/h
[2]; CA 105X (1M)
  Effect (12 days from cultivation): −
  radial growth rate (Kr): 0.000 mm/h
